Results from publication PMC7279046, “Discovery of the Novel Inhibitor Against New Delhi Metallo-β-Lactamase Based on Virtual Screening and Molecular Modelling” (International Journal of Molecular Sciences, 2020).
“Also recorded” adds a separate entry of the source. Like-named read-outs stand apart in the source and are kept apart here. Each block holds one compound with its values, some of them ahead of it.

How the values were obtained:
[1] = test system: E. coli BL21 (pET28a-SP-NDM-1); assay: antibacterial activity assay (MIC, broth microdilution; FICI); type: cell-based; details: for MIC: Escherichia coli; for FICI: FICI ≤ 0.5 denotes synergy
NDM-1 [2] = target: T1, NDM-1 (Klebsiella pneumoniae, UniProt C7C422); assay: nitrocefin assay (hydrolysis by purified NDM-1); type: biochemical
T1 construct: made in house; host or cells: E. coli BL21 (DE3)
Procedure: The inhibitory activities of 18 compounds against NDM-1 were tested by nitrocefin assay. The purified NDM-1 was incubated with drugs and nitrocefin, then the absorbance values of OD492nm were determined as the nitrocefin hydrolysis. […]
collected for the subsequent protein purification as described by Liu et.al. […]
further determination of the inhibitory effect of ZINC05683641 on the hydrolysis activities of NDM-1. The initial identifying of NDM-1 inhibitory activities was carried out on the […]
serves as an indicator whose colour changes from yellow to red with increased hydrolysis.
(§1) NDM-1 were incubated with various concentrations of inhibitor (0, 4, 8, 16, 32, 64 μg/mL) in phosphate buffer (pH = 7.4) at room temperature for 20 minutes, and then, 25 μL of nitrocefin was added to the mixture. After 10 minutes of incubation, the samples were read at OD492nm to determine the level of nitrocefin hydrolysis. […]

W93A-NDM-1 [3] = target: T2, W93A-NDM-1 (Klebsiella pneumoniae, UniProt C7C422, W93A); assay: nitrocefin assay with mutant W93A; type: biochemical; details: 4-64 μg/mL
Procedure: (§2) Subsequently, the inhibitory activity of ZINC05683641 against mutants was tested by the nitrocefin assays. […] The findings indicate that due to the mutation of residues in the binding sites, the binding affinity of ZINC05683641 with NDM-1 decreased, leading to a loss of inhibitory activity. […]
(§3) Site-Directed Mutagenesis
(§4) The recombinant plasmid pET28a-NDM-1 was constructed according to previous reports encoding WT-NDM-1. Plasmids encoding W93A-NDM-1 or H250A-NDM-1 were constructed by using a QuikChange site-directed mutagenesis kit. The template plasmid was the pET28a-NDM-1 plasmid, as noted above.
(§5) Expression and puriﬁcation of WT-PLY and mutants
(§6) Plasmids harboring the coding sequences for WT-NDM-1, W93A-NDM-1, and H250A-NDM-1 were transformed into E. coli BL21 (DE3). The E. coli strain was cultured in 1,000 mL of LB broth supplemented with 50 μg mL–1 kanamycin until the OD 600 nm of the cultures reached 0.6–0.8.
(§7) Protein expression was induced by using 0.3 mM IPTG for 12 h at 16 °C. The cells were harvested and washed once with sterile PBS. […]
as §1

W93A-NDM-1 [4] = target: T2, W93A-NDM-1; assay: fluorescence-quenching assay, W93A; type: binding
Procedure: (§8) Furthermore, this competitive inhibition mechanism was verified by fluorescence quenching method. In previous literature, fluorescence quenching method are extensively used in the interaction mechanism research between ligand and protein. The binding constants of NDM-1 with ZINC05683641 were measured by fluorescence quenching method in this research. […] It is believed that the 3D structure of NDM-1-ZINC05683641 complex is reliable by MD simulation, and residues of ILE-35, MET-67, VAL-73, TRP-93, CYS-208, ASN-220 and HIS-250 played crucial roles in the binding of ZINC05683641 to NDM-1. […]
(§9) Fluorescence-quenching assay
(§10) According to Dong et al., Niu et al. and Qiu et al., the binding constants (KA) of WT-NDM-1 and two mutants NDM-1 with inhibitor were measured using the fluorescence-quenching […]
as §3, §4, §5
(§11) Plasmids harboring the coding sequences for WT-NDM-1, W93A-NDM-1, and H250A-NDM-1 were transformed into E. coli BL21 (DE3). […]

H250A-NDM-1 [5] = target: T3, H250A-NDM-1 (Klebsiella pneumoniae, UniProt C7C422, H250A); assay: nitrocefin assay with mutant H250A; type: biochemical; details: 4-64 μg/mL
Procedure: as §2, §3, §4, §5, §6, §7, §1

H250A-NDM-1 [6] = target: T3, H250A-NDM-1; assay: fluorescence-quenching assay, H250A; type: binding
Procedure: as §8, §9, §10, §3, §4, §5, §11

WT-NDM-1 = target: T4, WT-NDM-1 (Klebsiella pneumoniae, UniProt C7C422); assay: fluorescence-quenching assay, WT; type: binding
T4 construct: made in house; host or cells: E. coli BL21 (DE3)
Procedure: as §8, §9, §10, §3, §4, §5, §11

NDM-1 [7] = target: T1, NDM-1; details: cited from earlier work
[8] = IC50, nitrocefin hydrolysis, OD492nm, mean ± SD, n = 3
[9] = IC50 (not available; inhibitory activity at 1 mM), initial test at a concentration of 1 mM

T2 sequence (C7C422 29-270 W93A): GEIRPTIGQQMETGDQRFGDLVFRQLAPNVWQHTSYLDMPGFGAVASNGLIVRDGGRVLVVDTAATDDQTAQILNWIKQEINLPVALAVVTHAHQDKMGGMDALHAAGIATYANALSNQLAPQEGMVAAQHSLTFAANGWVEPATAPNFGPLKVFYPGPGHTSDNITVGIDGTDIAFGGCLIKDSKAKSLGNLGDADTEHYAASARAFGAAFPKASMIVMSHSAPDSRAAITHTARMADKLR
T1 sequence (C7C422 29-270 limits assumed): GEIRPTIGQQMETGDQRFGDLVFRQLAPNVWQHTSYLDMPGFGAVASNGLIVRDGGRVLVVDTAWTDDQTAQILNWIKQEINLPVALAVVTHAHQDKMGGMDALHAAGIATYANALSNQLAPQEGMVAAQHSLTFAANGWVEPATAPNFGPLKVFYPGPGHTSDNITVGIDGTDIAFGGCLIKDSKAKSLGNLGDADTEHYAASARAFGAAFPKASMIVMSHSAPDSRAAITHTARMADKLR
T3 sequence (C7C422 29-270 H250A): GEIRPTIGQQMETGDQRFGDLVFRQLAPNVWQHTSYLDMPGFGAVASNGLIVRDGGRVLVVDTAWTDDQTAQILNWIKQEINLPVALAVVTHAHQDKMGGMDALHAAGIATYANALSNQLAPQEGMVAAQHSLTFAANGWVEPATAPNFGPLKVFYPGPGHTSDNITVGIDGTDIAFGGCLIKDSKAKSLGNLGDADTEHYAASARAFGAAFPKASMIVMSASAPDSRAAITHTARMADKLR
T4 sequence (C7C422 29-270 limits assumed): as the sequence (C7C422 29-270 limits assumed) above

Structure (SMILES): C[C@@H](O)[C@H]1C(=O)N2C(C(=O)O)=C(S[C@@H]3CN[C@H](C(=O)N(C)C)C3)[C@H](C)[C@H]12 [Meropenem]
MIC of meropenem in combination ([1]; +64 μg/mL ZINC05683641): 8 µg/mL
MIC of meropenem in combination ([1]; +128 μg/mL ZINC05683641): 8 µg/mL
MIC [1]: 32 µg/mL
reduction of the MICs of meropenem ([1]; addition of ZINC05683641 at 64 and 128 μg/mL): fourfold
FICI ([1]; meropenem +64 μg/mL ZINC05683641): 0.375
FICI ([1]; meropenem +128 μg/mL ZINC05683641): 0.50
FICI ([1]; meropenem +128 μg/mL ZINC05683641, listed as meropenem): 0.500

Structure (SMILES): Cc1ccc(N2C(=O)c3ccc(C(=O)c4ccc5c(c4)C(=O)N(c4ccc(C)cc4C)C5=O)cc3C2=O)c(C)c1 [ZINC00639379]
IC50 (NDM-1 [2]; [8]): 207 ± 15.5 µM

Structure (SMILES): O=c1oc2cc(OCc3ccc(Cl)c(Cl)c3)ccc2cc1-c1nc2ccccc2s1 [ZINC01799114]
IC50 (NDM-1 [2]; [8]): > 300 µM

Structure (SMILES): Cc1ccc(N2C(=O)c3ccc(C(=O)c4ccc5c(c4)C(=O)N(c4ccc(C)cc4C)C5=O)cc3C2=O)c(C)c1 [ZINC02079077]
IC50 (NDM-1 [2]; [8]): 108 ± 5.64 µM

Structure (SMILES): Cc1ccc(-c2cc(C(=O)Oc3ccc([N+](=O)[O-])cc3)c3cc(C)ccc3n2)cc1 [ZINC02577071]
IC50 (NDM-1 [2]; [8]): > 300 µM

Structure (SMILES): Cc1ccc(S(=O)(=O)ON2C(=O)c3cccc4cccc(c34)C2=O)cc1 [ZINC02938448]
IC50 (NDM-1 [2]; [8]): > 300 µM

Structure (SMILES): O=C1c2cccc3cccc(c23)C(=O)N1OS(=O)(=O)c1ccc(Cl)cc1 [ZINC02953923]
IC50 (NDM-1 [2]; [8]): > 300 µM

Structure (SMILES): Cc1ccc(S(=O)(=O)Nc2cccc3cccc(NS(=O)(=O)c4ccc(C)cc4)c23)cc1 [ZINC03198432]
IC50 (NDM-1 [2]; [8]): > 300 µM

Structure (SMILES): O=C(N[C@@H](Cc1ccc2ccccc2c1)C(=O)O)OCC1c2ccccc2-c2ccccc21 [ZINC04218138]
IC50 (NDM-1 [2]; [9]): > 1000 µM

Structure (SMILES): COc1ccc2c3c(cccc13)C(=O)N(OS(=O)(=O)c1ccc(C)cc1)C2=O [ZINC05683641]
inhibition of W93A hydrolysis activity (W93A-NDM-1 [3]): almost no inhibition; also recorded: did not lead to inhibitory effects
Kd (W93A-NDM-1 [4]): 3.28 µM
binding constant KA (W93A-NDM-1 [4]; W93A, fluorescence spectroscopy quenching, mean ± SD, n = 3): 3.05 ± 0.83 1 × 10^5 L mol^−1
inhibition of H250A hydrolysis activity (H250A-NDM-1 [5]): almost no inhibition; also recorded: did not lead to inhibitory effects
Kd (H250A-NDM-1 [6]): 4.65 µM
binding constant KA (H250A-NDM-1 [6]; H250A, fluorescence spectroscopy quenching, mean ± SD, n = 3): 2.15 ± 0.88 1 × 10^5 L mol^−1
MIC [1]: > 512 µg/mL
inhibition of cell growth ([1]; inhibitor alone, 512 μg/mL): did not inhibit cell growth
IC50 (NDM-1 [2]; [8]): 13.6 ± 0.52 µM
hydrolysis activity of nitrocefin by WT-NDM-1 (NDM-1 [2]; final concentrations of 4, 8, 16, 32 and 64 μg/mL): reduced
inhibition at 16 µM (NDM-1 [2]; read-out: inhibition rate): > 50%
Kd (WT-NDM-1): 2.4 µM

Structure (SMILES): C[C@H]1CCc2cc(F)cc3c(=O)c(C(=O)NCc4ccccc4Cl)c(O)n1c23 [ZINC06166781]
IC50 (NDM-1 [2]; [8]): > 300 µM

Structure (SMILES): Cc1ccc(-c2cc(C(F)(F)F)c3c(N)c(C(=O)c4ccccc4)sc3n2)cc1 [ZINC06421319]
IC50 (NDM-1 [2]; [9]): > 1000 µM

Structure (SMILES): N[C@H](CN[C@H](CN[C@@H](CC(=O)O)C(=O)O)C(=O)O)C(=O)O [aspergillomarasmine A]
IC50 (NDM-1 [7]): 4 µM

Continued, values first:

IC50 (NDM-1 [2]; [8]): > 300 µM
Structure (SMILES): Cc1ccc(S(=O)(=O)N[C@@H](C(=O)Oc2ccc3c4c(c(=O)oc3c2)CCCC4)c2ccccc2)cc1 [ZINC11865709]

IC50 (NDM-1 [2]; [8]): > 300 µM
Structure (SMILES): O=[N+]([O-])c1cccc(S(=O)(=O)N2CN(c3ccc4ccccc4c3)c3nc4ccccc4nc32)c1 [ZINC12524283]

IC50 (NDM-1 [2]; [8]): > 300 µM
Structure (SMILES): O=C1C(=Cc2cccc(Cl)c2)CN(Cc2ccccc2)CC1=Cc1cccc(Cl)c1 [ZINC20115378]

IC50 (NDM-1 [2]; [9]): > 1000 µM
Structure (SMILES): Cc1ccccc1S(=O)(=O)ON1C(=O)c2cccc3cc(S(=O)(=O)N(C)C)cc(c23)C1=O [ZINC25558269]

IC50 (NDM-1 [2]; [8]): > 300 µM
Structure (SMILES): O=C1c2cccc3c(Br)ccc(c23)C(=O)N1OS(=O)(=O)c1ccc(Cl)cc1 [ZINC25558273]

IC50 (NDM-1 [2]; [9]): > 1000 µM
Structure (SMILES): Cc1ccc(C2=NN3[C@@H](C(=O)c4ccc(-c5ccccc5)cc4)Oc4ccc(Cl)cc4[C@H]3C2)cc1 [ZINC25558691]
